Results reported in ChEMBL document CHEMBL4665701, “Discovery and Characterization of Clinical Candidate LXE408 as a Kinetoplastid-Selective Proteasome Inhibitor for the Treatment of Leishmaniases” (J Med Chem, 2020).
Calls of active or inactive are those of the source. The calls are words filed in the database; no cut-off is given here.

What was measured:
in vitro [1] = details: rat, liver microsomes
in vitro [2] = details: rat, liver microsomes; remark: listed apart in the source
in vitro [3] = details: mouse, liver microsomes
Description: Metabolic stability in mouse liver microsomes assessed as hepatic extraction ratio after 1 hr by LC-MS/MS analysis

Leishmania donovani [4] = assay: Antiparasitic activity against Leishmania donovani MHOM/ET/67/HU3 (ATCC) infected in primary BALB/c mouse peritoneal macrophages assessed as reduction in parasite proliferation incubated for 120 hrs by SYBR Green I staining based assay; type: functional, organism-based; details: Macrophage
[5] = Drug level in rat hepatocytes assessed as compound abundance level at 10 uM incubated for 4 hrs by UV chromatography; type: ADME, cell-based, Hepatocyte
[6] = Drug level in human hepatocytes assessed as compound abundance level at 10 uM incubated for 4 hrs by UV chromatography; type: ADME, cell-based, Hepatocyte
[7] = Drug level in dog hepatocytes assessed as compound abundance level at 10 uM incubated for 4 hrs by UV chromatography; type: ADME, cell-based, Canis lupus familiaris, Hepatocyte
[8] = Drug level in monkey hepatocytes assessed as compound abundance level at 10 uM incubated for 4 hrs by UV chromatography; type: ADME, cell-based, Macaca mulatta, Hepatocyte; details: rhesus monkey
in vitro [9] = details: rat, liver microsomes; remark: listed apart in the source
Description: Metabolic stability in rat liver microsomes assessed as hepatic extraction ratio after 1 hr by LC-MS/MS analysis

[10] = Genotoxicity in Salmonella typhimurium by Ames test; type: toxicity; details: salmonella enterica subsp. enterica serovar typhimurium
Cytochrome P450 1A1 = biological target: T1, Cytochrome P450 1A1 (Homo sapiens, UniProt P04798); assay: Drug metabolism assessed as human CYP1A1-mediated N-(4-fluoro-3-(6-(3-methylpyri din-2-yl)-[1,2,4]triazolo[1,5- a]pyrimidin-2-yl)phenyl)-2-(hy droxymethyl)-4-methyloxazole-5 -carboxamide formation; type: ADME; details: recombinant enzyme
T1 sequence (P04798 whole entry): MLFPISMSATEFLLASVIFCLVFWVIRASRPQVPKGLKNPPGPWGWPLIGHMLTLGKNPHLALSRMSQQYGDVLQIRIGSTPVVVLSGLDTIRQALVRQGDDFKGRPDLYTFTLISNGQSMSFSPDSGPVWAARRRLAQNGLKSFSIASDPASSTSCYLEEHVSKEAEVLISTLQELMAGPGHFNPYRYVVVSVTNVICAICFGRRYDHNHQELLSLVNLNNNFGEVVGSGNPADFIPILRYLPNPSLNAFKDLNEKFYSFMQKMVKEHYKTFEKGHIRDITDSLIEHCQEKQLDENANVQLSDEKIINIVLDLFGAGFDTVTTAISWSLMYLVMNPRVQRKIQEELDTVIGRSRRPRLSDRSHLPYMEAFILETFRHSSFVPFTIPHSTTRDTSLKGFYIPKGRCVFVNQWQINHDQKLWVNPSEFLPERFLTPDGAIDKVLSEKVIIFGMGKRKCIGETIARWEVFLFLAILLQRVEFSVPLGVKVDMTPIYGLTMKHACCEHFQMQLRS

[11] = Drug level in mouse hepatocytes assessed as compound abundance level at 10 uM incubated for 4 hrs by UV chromatography; type: ADME, cell-based, Hepatocyte
Leishmania donovani [12] = assay: Antiparasitic activity against Leishmania donovani MHOM/ET/67/HU3 (ATCC) infected in BALB/c mouse model of visceral leishmaniasis assessed as parasite burden in liver at 10 mg/kg, po BID for 8 days by qPCR analysis (reference value: 100%); type: functional; details: time 8 day
Leishmania major = assay: Antiparasitic activity against Leishmania major MHOM/IR/-/173 promastigotes infected in BALB/c mouse model of cutaneous leishmaniasis assessed as healing of parasite-induced skin lesions at 20 mg/kg, po BID for 10 days; type: functional, organism-based; details: time 10.0 day
Cytochrome P450 3A4 = Cytochrome P450 3A4 (Homo sapiens, UniProt P08684); assay: Drug metabolism assessed as human CYP3A4-mediated N-(4-fluoro-3-(6-(3-methylpyri din-2-yl)-[1,2,4]triazolo[1,5- a]pyrimidin-2-yl)phenyl)-2-(hy droxymethyl)-4-methyloxazole-5 -carboxamide formation; type: ADME; details: recombinant enzyme
Cytochrome P450 2J2 = biological target: T2, Cytochrome P450 2J2 (Homo sapiens, UniProt P51589); assay: Drug metabolism assessed as human CYP2j2-mediated N-(4-fluoro-3-(6-(3-methylpyri din-2-yl)-[1,2,4]triazolo[1,5- a]pyrimidin-2-yl)phenyl)-2-(hy droxymethyl)-4-methyloxazole-5 -carboxamide formation; type: ADME; details: recombinant enzyme
T2 sequence (P51589 whole entry): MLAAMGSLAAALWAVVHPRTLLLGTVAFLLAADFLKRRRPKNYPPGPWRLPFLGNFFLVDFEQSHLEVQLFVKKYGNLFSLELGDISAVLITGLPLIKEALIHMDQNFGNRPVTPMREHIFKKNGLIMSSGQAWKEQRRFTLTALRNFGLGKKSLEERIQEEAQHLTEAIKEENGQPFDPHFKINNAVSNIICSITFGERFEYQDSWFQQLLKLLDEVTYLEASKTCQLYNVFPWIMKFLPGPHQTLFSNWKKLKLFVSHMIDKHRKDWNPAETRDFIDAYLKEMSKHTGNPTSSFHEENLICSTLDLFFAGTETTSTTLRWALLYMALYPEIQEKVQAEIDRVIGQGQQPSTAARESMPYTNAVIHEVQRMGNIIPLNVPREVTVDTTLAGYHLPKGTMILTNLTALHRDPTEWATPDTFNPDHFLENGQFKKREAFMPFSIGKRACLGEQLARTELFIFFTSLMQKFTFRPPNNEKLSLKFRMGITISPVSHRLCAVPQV

Cytochrome P450 2D15 = biological target: T3, Cytochrome P450 2D15 (Canis lupus familiaris, UniProt Q29473); assay: Drug metabolism assessed as dog CYP2D15-mediated N-(4-fluoro-3-(6-(3-methylpyri din-2-yl)-[1,2,4]triazolo[1,5- a]pyrimidin-2-yl)phenyl)-2-(hy droxymethyl)-4-methyloxazole-5 -carboxamide formation; type: ADME; details: recombinant enzyme
T3 sequence (Q29473 whole entry): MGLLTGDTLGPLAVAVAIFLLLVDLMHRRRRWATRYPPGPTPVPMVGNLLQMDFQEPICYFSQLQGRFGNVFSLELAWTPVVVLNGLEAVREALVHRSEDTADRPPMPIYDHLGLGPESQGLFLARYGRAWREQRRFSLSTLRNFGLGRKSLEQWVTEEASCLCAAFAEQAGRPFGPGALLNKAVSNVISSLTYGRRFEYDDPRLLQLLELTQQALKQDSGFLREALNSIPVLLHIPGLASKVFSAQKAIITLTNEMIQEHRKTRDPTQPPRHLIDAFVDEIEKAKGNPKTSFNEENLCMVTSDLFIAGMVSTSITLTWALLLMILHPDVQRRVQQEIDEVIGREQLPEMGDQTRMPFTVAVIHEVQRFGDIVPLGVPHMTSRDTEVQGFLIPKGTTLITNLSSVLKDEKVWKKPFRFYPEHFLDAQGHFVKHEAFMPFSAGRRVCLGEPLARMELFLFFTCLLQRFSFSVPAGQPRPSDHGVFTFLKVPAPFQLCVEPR

[13] = Drug concentration in plasma of Leishmania donovani MHOM/ET/67/HU3 (ATCC) infected BALB/c mouse model of visceral leishmaniasis at 0.3 to 10 mg/kg, po BID for 8 days; type: ADME, organism-based; details: in vivo, 192 h, dose 0.3-10 mg/kg, time 8 day
Cytochrome P450 1A2 = biological target: T4, Cytochrome P450 1A2 (Homo sapiens, UniProt P05177); assay: Drug metabolism assessed as human CYP1A2-mediated N-(4-fluoro-3-(6-(3-methylpyri din-2-yl)-[1,2,4]triazolo[1,5- a]pyrimidin-2-yl)phenyl)-2-(hy droxymethyl)-4-methyloxazole-5 -carboxamide formation; type: ADME; details: recombinant enzyme
T4 sequence (P05177 whole entry): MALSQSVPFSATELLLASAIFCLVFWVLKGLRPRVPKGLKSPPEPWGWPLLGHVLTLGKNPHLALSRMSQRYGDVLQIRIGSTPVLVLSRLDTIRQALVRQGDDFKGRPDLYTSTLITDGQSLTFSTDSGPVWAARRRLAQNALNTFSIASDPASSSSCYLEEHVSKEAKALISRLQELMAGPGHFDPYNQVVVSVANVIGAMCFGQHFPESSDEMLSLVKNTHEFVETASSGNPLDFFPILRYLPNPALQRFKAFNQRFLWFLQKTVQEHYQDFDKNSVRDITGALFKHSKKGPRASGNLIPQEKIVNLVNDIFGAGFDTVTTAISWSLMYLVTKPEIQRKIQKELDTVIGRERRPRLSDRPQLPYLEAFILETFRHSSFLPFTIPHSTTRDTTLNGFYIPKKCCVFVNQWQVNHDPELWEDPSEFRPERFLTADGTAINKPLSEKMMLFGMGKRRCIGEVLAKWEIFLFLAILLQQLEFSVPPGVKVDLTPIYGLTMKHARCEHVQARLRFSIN

Leishmania donovani [14] = assay: Antiparasitic activity against Leishmania donovani MHOM/ET/67/HU3 (ATCC) infected in BALB/c mouse model of visceral leishmaniasis assessed as parasite burden in liver at 0.3 mg/kg, po BID for 8 days by qPCR analysis (reference value: 100%); type: functional; details: time 8 day
[15] = Inhibition of chymotrypsin-like activity of Leishmania tarentolae proteasome beta 5 Y113F mutant
[16] = Toxicity in rat by vivo micronucleus test
Leishmania donovani [17] = assay: Antiparasitic activity against Leishmania donovani MHOM/ET/67/HU3 (ATCC) infected in BALB/c mouse model of visceral leishmaniasis assessed as parasite burden in liver at 1 mg/kg, po BID for 8 days by qPCR analysis (reference value: 100%); type: functional; details: time 8 day
Leishmania donovani [18] = assay: Antiparasitic activity against Leishmania donovani MHOM/ET/67/HU3 (ATCC) infected in BALB/c mouse model of visceral leishmaniasis assessed as parasite burden in liver at 3 mg/kg, po BID for 8 days by qPCR analysis (reference value: 100%); type: functional; details: time 8 day
[19] = Drug uptake in beagle dog at 10 mg/kg, po measured up to 24 hrs relative to LXE408; type: ADME, organism-based, Canis lupus familiaris; details: in vivo
Leishmania tarentolae [20] = assay: Inhibition of chymotrypsin-like activity of Leishmania tarentolae proteasome beta 4 F24L mutant
Leishmania tarentolae [21] = assay: Inhibition of chymotrypsin-like activity of Leishmania tarentolae proteasome beta 4
Leishmania donovani [22] = assay: Antiparasitic activity against Leishmania donovani MHOM/ET/67/HU3 (ATCC) infected in BALB/c mouse model of visceral leishmaniasis assessed as parasite burden in liver at 12 mg/kg, po QD for 8 days by qPCR analysis (reference value: 100%); type: functional; details: time 8 day
Leishmania donovani [23] = assay: Antiparasitic activity against Leishmania donovani MHOM/ET/67/HU3 (ATCC) infected in BALB/c mouse model of visceral leishmaniasis assessed as reduction in parasite burden in liver at 12 mg/kg, po QD for 8 days by qPCR analysis relative to control; type: functional, organism-based; details: time 8.0 day
Leishmania tarentolae [24] = assay: Noncompetitive inhibition of chymotrypsin-like activity of Leishmania tarentolae proteasome beta 5 using fluorogenic peptide Suc-LLVY-[Rh110]-[Dpro] as substrate

Cytochrome P450 3A4, sequence (P08684 whole entry): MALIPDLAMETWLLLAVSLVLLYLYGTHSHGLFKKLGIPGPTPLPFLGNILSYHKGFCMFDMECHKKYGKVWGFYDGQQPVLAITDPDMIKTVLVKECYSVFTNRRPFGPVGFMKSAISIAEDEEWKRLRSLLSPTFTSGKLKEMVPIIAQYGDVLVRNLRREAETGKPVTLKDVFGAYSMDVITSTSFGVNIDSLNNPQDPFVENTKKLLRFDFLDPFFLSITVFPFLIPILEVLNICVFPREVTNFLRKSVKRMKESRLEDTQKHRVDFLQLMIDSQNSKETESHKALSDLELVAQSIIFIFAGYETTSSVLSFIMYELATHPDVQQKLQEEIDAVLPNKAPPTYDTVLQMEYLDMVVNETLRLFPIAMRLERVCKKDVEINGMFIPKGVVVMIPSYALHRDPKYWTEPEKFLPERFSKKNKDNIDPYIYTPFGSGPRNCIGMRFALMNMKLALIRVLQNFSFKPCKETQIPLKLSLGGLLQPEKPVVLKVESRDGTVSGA

Cc1nc(C)c(C(=O)Nc2ccc(F)c(-c3nc4ncc(-c5ncccc5Cl)cn4n3)c2)o1
hepatic extraction ratio at 1 h (in vitro [1]): 0.21
hepatic extraction ratio at 1 h (in vitro [2]): < 0.21
hepatic extraction ratio at 1 h (in vitro [3]): < 0.21

Cc1cccnc1-c1cnc2nc(-c3cc(NC(=O)c4oc(CO)nc4C)ccc3F)nn2c1
EC50 (Leishmania donovani [4]): > 5 µM
Drug uptake [5]: <= 25%
Drug uptake [6]: <= 25%
Drug uptake [7]: 25%
Drug uptake [8]: <= 25%

Cc1nc(C)c(C(=O)Nc2ccc(F)c(-c3nc4ncc(-c5ncccc5C(F)F)cn4n3)c2)o1
hepatic extraction ratio at 1 h (in vitro [9]): < 0.18

COc1cccnc1-c1cnc2nc(-c3cc(NC(=O)c4oc(C)nc4C)ccc3F)nn2c1
hepatic extraction ratio at 1 h (in vitro [1]): < 0.21

Cc1nc(C)c(C(=O)Nc2ccc(F)c(-c3nc4ncc(-c5ncccc5C)cn4n3)c2)o1 [LXE-408]
Activity [10]: Non-Toxic
Drug metabolism (Cytochrome P450 1A1): Metabolite_Detected
Drug uptake [11]: > 75%
Activity (Leishmania donovani [12]): <0.16%
Activity (Leishmania major): Active
Drug metabolism (Cytochrome P450 3A4): Metabolite_Detected
Drug metabolism (Cytochrome P450 2J2): Metabolite_Detected
Drug uptake [5]: > 75%
Drug metabolism (Cytochrome P450 2D15): Metabolite_Detected
Drug uptake [13]: Dose-dependent effect
Drug metabolism (Cytochrome P450 1A2): Metabolite_Detected
Activity (Leishmania donovani [14]): 85%
Drug uptake [6]: > 75%
Drug uptake [7]: > 75%
Drug uptake [8]: > 75%
inhibition [15]: inactive
Activity [16]: Non-Toxic
Activity (Leishmania donovani [17]): 5.1%
Activity (Leishmania donovani [18]): <0.2%

Cc1nc(C)c(C(=O)Nc2ccc(F)c(-c3nc4ncc(-c5ncccc5CO)cn4n3)c2)o1
Drug uptake [19]: 9.1%
Drug uptake [11]: <= 25%
Drug uptake [5]: <= 25%
Drug uptake [6]: <= 25%
Drug uptake [7]: <= 25%
Drug uptake [8]: <= 25%

Cc1nc(CO)c(C(=O)Nc2ccc(F)c(-c3nc4ncc(-c5ncccc5C)cn4n3)c2)o1
Drug uptake [19]: 2.3%
EC50 (Leishmania donovani [4]): > 5 µM
Drug uptake [11]: <= 25%
Drug uptake [5]: <= 25%
Drug uptake [6]: <= 25%
Drug uptake [7]: <= 25%
Drug uptake [8]: <= 25%

CC(C)C[C@H](NC(=O)[C@H](Cc1ccccc1)NC(=O)c1cnccn1)B(O)O
inhibition (Leishmania tarentolae [20]): Active
inhibition (Leishmania tarentolae [21]): Active

CCCCCCCCCCCCCCCCOP(=O)([O-])OCC[N+](C)(C)C [MILTEFOSINE]
Activity (Leishmania donovani [22]): 4.2%
Activity (Leishmania donovani [23]): Active

Cc1nc(C)c(C(=O)Nc2ccc(F)c(-c3nc4ncc(-c5ccccn5)cn4n3)c2)o1
inhibition (Leishmania tarentolae [24]): Active
